“Also recorded” adds a separate entry of the source.
Legend:
[1] = tested on: Male Hos:HR-1 hairless mice; test: Test for obstruction of meibomian gland orifices by feeding HR-AD diet using hairless mice; assay type: in vivo, mouse; settings: for Number of obstructed meibomian gland orifices (mean, out of eight): six eyes
Procedure: 2. Test for Obstruction of Meibomian Gland Orifices by Feeding HR-AD Diet Using Hairless Mice A 1% (w/v) clarithromycin test solution was prepared by the same operation as described in Pharmacological Test 1. Male Hos:HR-1 hairless mice at five weeks of age were divided into a group of 6 fed a regular diet (CRF-1 diet, manufactured by Oriental Yeast Co., Ltd.); and a group of 12 fed an HR-AD diet (manufactured by Nosan Corporation), and the mice in each respective group were freely allowed to feed the regular diet or HR-AD diet. On the 28th day after the start of the diets, meibomian gland orifices were observed using a slit-lamp and the number of obstructed orifices out of eight meibomian gland orifices of the center of the right upper eyelid were counted. The presence or absence of an obstruction of the meibomian gland orifice was determined based on whether the meibomian gland orifice was in a cloudy and swollen state. The 12 mice in the HR-AD diet group were further divided into a saline-administered group; and a 1% (w/v) clarithromycin aqueous solution-administered group, and testing was carried out with six eyes in each group so as to minimize variations in the mean scores of the number of obstructed meibomian gland orifices in each group; from the 29th day after starting the diets, saline (2 μl/eye, three times per day) or 1% (w/v) clarithromycin aqueous solution (2 μl/eye, three times per day) were instilled for 14 days. At 42 days after starting the diet, meibomian gland orifices were observed using a slit-lamp and the number of obstructed orifices out of eight meibomian gland orifices of the center of the right upper eyelid were counted.

female Lewis rats = test: Test for meibomian gland peripheral telangiectasia by administration of complete Freund's adjuvant using rats; assay type: in vivo, rat; settings: for Telangiectasia score (mean): six eyes
Procedure: 1. Test for Meibomian Gland Peripheral Telangiectasia by Administration of Full Friend's Adjuvant Using Rats Clarithromycin (LKT Laboratories, Inc.), concentrated glycerin, dibasic sodium phosphate hydrate and polyoxyl 40 stearate were added to purified water and dissolved to prepare a test sample comprising clarithromycin at a final concentration of 1% (w/v), at pH 7. Twenty five μl of complete Freund's adjuvant was administered to one site of the right upper eyelid of female Lewis rats at five weeks age. On the seventh day from the initiation, the periphery of the meibomian gland orifices on the right upper eyelid was observed using a slit-lamp and a telangiectasia score was determined. The eyelid margin of the upper eyelid was divided into three segments: ear, middle and nasal sites, and based on criteria described in Table 1, scores of telangiectasia peripheral to the meibomian gland orifices in each segment were determined and the sum of the scores in three segments were calculated as the telangiectasia score of one eye. The presence or absence of dilation of the capillaries was determined based on whether a capillary that is usually not visible could be ascertained as a result of enlargement of the capillary diameter. [table] After dividing into a saline-administered group and a 1% (w/v) clarithromycin aqueous solution-administered groups, the test was carried out with six eyes in each group so as to minimize variations in mean scores, and from the 8th day after initiation, saline (5 μl/eye, six times per day) or 1% (w/v) clarithromycin aqueous solution (5 μl/eye, three or six times per day) were instilled into the right eyes for 21 days. At 28 days after initiation, the peripheries of the meibomian gland orifices on the right upper eyelids were observed using a slit-lamp and the telangiectasia score was determined.

[2] = 42 days after starting HR-AD diet (14 days from starting administration), 1% (w/v) aqueous solution

CC[C@H]1OC(=O)[C@H](C)[C@@H](O[C@H]2C[C@@](C)(OC)[C@@H](O)[C@H](C)O2)[C@H](C)[C@@H](O[C@@H]2O[C@H](C)C[C@H](N(C)C)[C@H]2O)[C@](C)(OC)C[C@@H](C)C(=O)[C@H](C)[C@@H](O)[C@]1(C)O [clarithromycin, Clarithromycin]
Number of obstructed meibomian gland orifices (mean, out of eight) ([1]; 28 days after starting feeding HR-AD diet (day 0 from start of administration, baseline), 1% (w/v) aqueous solution group): 5.5
Meibomian gland concretion [1, 2]: improved
Number of obstructed meibomian gland orifices, change in words [1, 2]: notably reduced the number of obstructions; also recorded: remarkably decreased
Number of obstructed meibomian gland orifices (mean, out of eight) ([1]; 42 days after starting feeding HR-AD diet (day 14 from start of administration), 1% (w/v) aqueous solution, 2 μl/eye, three times per day): 1.8
Telangiectasia score (mean) (female Lewis rats; 7 days after initiation (day 0 from start of administration, baseline), 1% (w/v) aqueous solution group, instilled 3 times per day): 5.3
Telangiectasia score (mean) (female Lewis rats; 7 days after initiation (day 0 from start of administration, baseline), 1% (w/v) aqueous solution group, instilled 6 times per day): 5.3
Telangiectasia score (mean) (female Lewis rats; 28 days after initiation (day 21 from start of administration), 1% (w/v) aqueous solution, 5 μl/eye, instilled 3 times per day): 2.8
Telangiectasia score (mean) (female Lewis rats; 28 days after initiation (day 21 from start of administration), 1% (w/v) aqueous solution, 5 μl/eye, instilled 6 times per day): 2.5
Telangiectasia score in the vicinity of the meibomian gland orifices compared to the saline-administered group (female Lewis rats; 28 days after initiation (day 21 from start of administration), 1% aqueous solution instilled three or six times per day): notably improved the telangiectasia score; also recorded: remarkably lower

Source: patent publication US20170071852A1, “THERAPEUTIC OR PREVENTIVE AGENT FOR MEIBOMIAN GLAND DYSFUNCTION OR MEIBOMIAN GLAND BLOCKAGE” (Santen Pharmaceutical Co., Ltd., priority 2012, published 2017)
